According to ChEMBL document CHEMBL1139665, “Synthesis, X-ray crystallographic analysis, and antitumor activity of N-(benzothiazole-2-yl)-1-(fluorophenyl)-O,O-dialkyl-alpha-aminophosphonates” (2006):

What was measured:
PC-3 [1] = assay: Antiproliferative activity against PC3 cells at 1 uM by MTT assay after 72 hrs; assay type: functional; conditions: Homo sapiens, PC-3, 72 h
PC-3 [2] = assay: Antiproliferative activity against PC3 cells at 5 uM by MTT assay after 72 hrs; assay type: functional; conditions: Homo sapiens, PC-3, 72 h
PC-3 [3] = assay: Antiproliferative activity against PC3 cells at 10 uM by MTT assay after 72 hrs; assay type: functional; conditions: Homo sapiens, PC-3, 72 h
A-375 [4] = assay: Antiproliferative activity against A375 cells at 1 uM by MTT assay after 72 hrs; assay type: functional; conditions: Homo sapiens, A-375, 72 h
A-375 [5] = assay: Antiproliferative activity against A375 cells at 5 uM by MTT assay after 72 hrs; assay type: functional; conditions: Homo sapiens, A-375, 72 h
A-375 [6] = assay: Antiproliferative activity against A375 cells at 10 uM by MTT assay after 72 hrs; assay type: functional; conditions: Homo sapiens, A-375, 72 h
A-431 [7] = assay: Antiproliferative activity against A431 cells at 1 uM by MTT assay after 72 hrs; assay type: functional; conditions: Homo sapiens, A-431, 72 h
A-431 [8] = assay: Antiproliferative activity against A431 cells at 5 uM by MTT assay after 72 hrs; assay type: functional; conditions: Homo sapiens, A-431, 72 h
A-431 [9] = assay: Antiproliferative activity against A431 cells at 10 uM by MTT assay after 72 hrs; assay type: functional; conditions: Homo sapiens, A-431, 72 h
[10] = Antiproliferative activity against Bcap37 cells at 1 uM by MTT assay after 72 hrs; assay type: functional, Homo sapiens
[11] = Antiproliferative activity against Bcap37 cells at 5 uM by MTT assay after 72 hrs; assay type: functional, Homo sapiens
[12] = Antiproliferative activity against Bcap37 cells at 10 uM by MTT assay after 72 hrs; assay type: functional, Homo sapiens

| Structure (SMILES) | inhibition at 1 µM (PC-3 [1]) | inhibition at 5 µM (PC-3 [2]) | inhibition at 10 µM (PC-3 [3]) | inhibition at 1 µM (A-375 [4]) | inhibition at 5 µM (A-375 [5]) | inhibition at 10 µM (A-375 [6]) | inhibition at 1 µM (A-431 [7]) | inhibition at 5 µM (A-431 [8]) | inhibition at 10 µM (A-431 [9]) | inhibition at 1 µM [10] | inhibition at 5 µM [11] | inhibition at 10 µM [12] |
| --- | --- | --- | --- | --- | --- | --- | --- | --- | --- | --- | --- | --- |
| CCCOP(=O)(OCCC)C(Nc1nc2c(C)cccc2s1)c1ccccc1F (stereo unspecified) | 21.7% | 29.4% | 43.3% | -0.2% | 4.8% | 4.3% | 15.9% | 27.3% | 31.7% | -18.9% | 0.8% | 21.7% |
| COc1ccc2nc(NC(c3ccccc3F)P(=O)(OC)OC)sc2c1 (stereo unspecified) | 21.4% | 26.6% | 33.3% | 4.3% | 10.1% | 11.4% | 1.9% | 7.9% | 8.64% | 11.9% | 17.8% | 25.1% |
| CCOP(=O)(OCC)C(Nc1nc2c(C)cccc2s1)c1ccc(C(F)(F)F)cc1 (stereo unspecified) | 12.6% | 13.5% | 49.3% | -10.2% | 1.6% | 14.2% | 0.36% | 2.06% | 16.9% | -5.2% | 9.8% | 16.7% |
| CCCCOP(=O)(OCCCC)C(Nc1nc2ccc(OC)cc2s1)c1ccccc1F (stereo unspecified) | -6.6% | 5.3% | 13.2% | -6.2% | 3.5% | 17.4% | -3.7% | 5.4% | 28.8% | 23.6% | 38.2% | 44.2% |
| CCOP(=O)(OCC)C(Nc1nc2ccc(OC)cc2s1)c1ccc(F)cc1 (stereo unspecified) | 32.1% | 41% | 49.5% | 8% | 10.9% | 34.5% | 11.2% | 20.9% | 31.2% | 10% | 39% | 49.9% |
| CCCCOP(=O)(OCCCC)C(Nc1nc2c(C)cccc2s1)c1ccc(C(F)(F)F)cc1 (stereo unspecified) | 5% | 31.6% | 36% | -3.2% | 21.6% | 31.5% | 37.7% | 40.8% | 57.4% | 0.1% | 9.2% | 20.3% |
| CCOP(=O)(OCC)C(Nc1nc2ccc(OC)cc2s1)c1ccccc1F (stereo unspecified) | 16.8% | 22.5% | 38.9% | 7.5% | 7.9% | 15.7% | 4.5% | 12.3% | 22.1% | 20.5% | 34.5% | 49.4% |
| CCCOP(=O)(OCCC)C(Nc1nc2ccc(OC)cc2s1)c1ccccc1F (stereo unspecified) | 5% | 15.8% | 28.7% | 10.3% | 13.9% | 23.8% | 35.3% | 49.2% | 58.1% | 21.3% | 25.1% | 27.1% |
| Cc1cccc2sc(NC(c3ccc(C(F)(F)F)cc3)P(=O)(OC(C)C)OC(C)C)nc12 (stereo unspecified) | 6.3% | 15.3% | 25.9% | -1.3% | 8.6% | 9.1% | 17.3% | 20.5% | 29.5% | -0.7% | 11.2% | 22.7% |
| CCCCOP(=O)(OCCCC)C(Nc1nc2c(C)cccc2s1)c1ccccc1F (stereo unspecified) | 52.1% | 86% | 89.1% | 11.2% | 25.6% | 32.1% | 32.1% | 49% | 72.1% | 10% | 29% | 38.1% |
| CCOP(=O)(OCC)C(Nc1nc2c(C)cccc2s1)c1ccccc1F (stereo unspecified) | 3.51% | 22.9% | 41.9% | -13.9% | -6.1% | 9.2% | 17.7% | 23.3% | 35.3% | 35.8% | 42.6% | 58.9% |
| COc1ccc2nc(NC(c3ccccc3F)P(=O)(OC(C)C)OC(C)C)sc2c1 (stereo unspecified) | -8.5% | 2.1% | 18.5% | -4.3% | 1.7% | 2.8% | -7.4% | 7.5% | 16.7% | 39.7% | 43.2% | 50.4% |
| COP(=O)(OC)C(Nc1nc2c(C)cccc2s1)c1ccc(C(F)(F)F)cc1 (stereo unspecified) | 4% | 4.6% | 8.9% | 1.8% | 19.2% | 20.8% | 22.1% | 26% | 47.3% | -13.2% | -0.8% | 2.5% |
